# Results as given in patent EP2891491A1, “Use of (r)-phenylpiracetam for the treatment of sleep disorders” (Merz Pharma GmbH & Co. KGaA, priority 2014, dated 2015).
# Values joined by “and” are separate entries in the source; they are usually repeats but may differ in a detail not shown here. Identical values can stand only once.
# Legend:
# rats = test: motivation tests: progressive ratio task, cost-benefit choice test, consumption test; format: in vivo
# Protocol: EXAMPLE 6: Effect of (R)-phenylpiracetam in motivation tests - Figs. 5, 6, 7, 8
# Methylphenidate purchased from Sigma (Taufkirchen, Germany) was dissolved in distilled water fresh for each test day. D-Amphetamine purchased from Sigma (Taufkirchen, Germany) was dissolved in 0.9% sterile NaCl solution fresh for each test day. (R)-Phenylpiracetam was dissolved in distilled water fresh for each test day.
# One hundred and three male Sprague-Dawley rats (Janvier, Le Genest-St-Isle, France) weighing 225-250 g on arrival were used.
# The animals were kept under standard laboratory conditions in groups of up to 4 per care with ad libitum access to water. Standard diet for rodents (Altromin) was available to the animals at 15 g per animal/day
# For each test described below, two independent experiments were performed using an identical protocol. After continuous reinforcement training (CRF) training (see below) all animals were assigned to treatment groups, such that performance across all the groups was similar. The treatment groups were evenly distributed throughout the caging system.
# In experiment 1 and 2 the following protocols were used:
# Overview: Three tests were performed in a consecutive manner on subsequent days. On day 1-2, animals were habituated individually to Skinner boxes in two sessions, one per day, for 30 min. Animals received "free" food pellets at a random time (one pellet per minute on average). On days 3-8 animals were trained in Skinner boxes on a continuous reinforcement schedule (one pellet per lever press). On days 9-10 they were tested in the progressive ratio test (Test 1) off-drug, on days 11-12 on-drug. On day 13, a choice test (Test 2) was performed on-drug, on day 14, a consumption test (Test 3) was performed on-drug. Below, tests are described in detail.
# Behavioral testing was conducted in 12 operant test chambers (Med Associates, St. Albans, USA). Each chamber was equipped with a retractable lever, a food dispenser with receptacle, an overhead house light and two stimulus lights, one above the lever and the other above the food receptacle. An infrared photocell beam detected nose pokes into the food receptacle. The apparatus was controlled by a computer system (SmartControl®-Interface and MedPC-software, Med Associates, St. Albans, USA). The light above the food receptacle indicated the delivery of a food pellet in the receptacle. Rats were first habituated to the operant boxes for two sessions (30 min each) on two consecutive days. Thereafter, animals were trained for six sessions on the CRF schedule for 30 min. Followed by 4 sessions (two session off-drug followed by two sessions on-drug) of an increasing fixed ratio (FR) schedule in steps of 5, with 3 repetitions of each step (i.e. 1-1-1; 5-5-5; 10-10-10; ...). When the required FR value of each trial was achieved the light above the food receptacle indicated the delivery of a single food pellet (45 mg, Bioserve, USA). The light remained on until the rat poked its nose in the receptacle. Lever presses while the light was on were counted as perseverative lever presses; they were counted but had no programmed consequences. […] For each session, the value of the last completed ratio (breaking point) was recorded as well as the amount of received rewards, the perseverative lever presses, the duration of the session and the latency to respond. Animals of all treatment groups received respective vehicle/drug infusions 30 min pre-test on the final two sessions involving testing under a PR schedule.
# In this task the rats had the choice between working for their preferred food (Bioserve pellets) by pressing the lever on a PR schedule as described above or obtaining lab chow being freely available in a dish (about 15 g) within the operant chamber. The food receptacle and the lever were positioned on the same wall of the operant chamber, the dish containing the lab chow was situated in a corner on the opposite side of the operant chamber. […]
# [1] = biological target: T1, neuronal dopamine re-uptake transporter (Homo sapiens, UniProt Q01959); test: functional monoamine transporter assay: [3H]-dopamine uptake in CHO-K1 cells expressing dopamine transporters; format: cell-based; settings: functional assays, read-out: affinity for the neuronal dopamine re-uptake transporter
# T1 construct: expressed in transfected cells
# T1 sequence (Q01959 whole entry): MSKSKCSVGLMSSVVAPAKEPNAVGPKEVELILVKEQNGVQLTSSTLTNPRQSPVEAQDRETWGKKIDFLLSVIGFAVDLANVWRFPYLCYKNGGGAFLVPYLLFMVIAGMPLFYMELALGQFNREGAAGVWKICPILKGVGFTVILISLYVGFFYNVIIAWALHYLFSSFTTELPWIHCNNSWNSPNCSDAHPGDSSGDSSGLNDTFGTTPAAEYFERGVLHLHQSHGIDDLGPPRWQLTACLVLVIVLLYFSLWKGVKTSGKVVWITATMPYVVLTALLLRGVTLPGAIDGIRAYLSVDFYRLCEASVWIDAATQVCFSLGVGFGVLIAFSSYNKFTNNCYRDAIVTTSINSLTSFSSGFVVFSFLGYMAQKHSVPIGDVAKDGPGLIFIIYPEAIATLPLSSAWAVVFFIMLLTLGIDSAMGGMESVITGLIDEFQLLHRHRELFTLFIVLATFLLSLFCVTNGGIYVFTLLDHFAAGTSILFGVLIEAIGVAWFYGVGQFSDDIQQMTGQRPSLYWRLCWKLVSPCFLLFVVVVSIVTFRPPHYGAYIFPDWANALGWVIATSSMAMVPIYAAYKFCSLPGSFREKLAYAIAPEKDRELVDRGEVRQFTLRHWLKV
# Protocol: Using functional monoamine transporter assays, we determined the potential drug targets for (R)-phenylpiracetam.
# Recombinant Chinese hamster ovary (CHO) cells CHO-K1 (ATCC® CCL-61 ™) cells stably expressing dopamine transporters are plated. The cells (2 x 10^5/ml) are pre-incubated with test compound and/or vehicle in modified Tris-HEPES buffer pH 7.1 at 25°C for 20 min and 50 nM [^3H]-dopamine is then added for an additional 15 min incubation period. Non-specific signal is determined in the presence of 10 µM nomifensine. Cells are then solubilized with 1% SDS lysis buffer. Reduction of [^3H]-dopamine uptake by 50 percent or more (≥50%) relative to vehicle controls indicates significant inhibitory activity. Compounds are screened at 10, 1, 0.1, 0.01 and 0.001 µM. These same concentrations are concurrently applied to a separate group of untreated cells and evaluated for possible compound-induced cytotoxicity only if significant inhibition of uptake is observed.
smiles,measurement,setting,value
NC(=O)CN1C[C@@H](c2ccccc2)CC1=O [(R)-phenylpiracetam],consumption of freely available normal food,rats; cost-benefit choice test,does not increase
same,"motivation, i.e. the work load animals are willing to perform to obtain more rewarding food",rats; drug 30 min pre-test,increases motivation
same,effect on motivation compared with methylphenidate and amphetamine,rats; progressive ratio and cost benefit tests,much stronger than that of methylphenidate and amphetamine
same,IC50,[1],~13 µM and 13 µM
